The source of these data is patent publication EP4711369A1, “1H-[1,2,3]TRIAZOLO[4,5-H]QUINAZOLINE COMPOUNDS AS PROTEIN KINASE INHIBITORS” (Chengdu Cynogen Bio-Pharmaceutical Technology Co., Ltd., priority 2023, dated 2024).

Read-outs that look alike come from different tables or passages of the source.

The target of one assay is CDK2/cyclin E (Homo sapiens, UniProt P24941). Briefly: Assay of kinase activity (ADP-Glo). Format: biochemical. The note with it: kinase inhibitory activity, read-out: CDK2/E1 IC50. As for the experimental part:
(§1) CDK/cyclin catalyzes the phosphorylation of a substrate, which concomitantly consumes ATP and produces ADP. The inhibition rate (%) in the presence of a small molecule inhibitor was assessed by measuring the amount of ADP generated in the reaction. The assay compounds were thoroughly mixed by vortexing and then diluted in DMSO to 100× the assay concentration. […] A 2× kinase solution was prepared using a 1× kinase reaction buffer (50 mM Hepes, 10 mM MgCl2, 0.01% Brij35, 2 mM DTT). 2 µL of the kinase solution was transferred to the 384-well assay plate, and the plate was centrifuged at 1000 rpm for 60 seconds in a microplate centrifuge. The plate was incubated at 25 °C in a biochemical incubator for 10 minutes. A 2x mixture of substrate and ATP was prepared in the kinase reaction buffer. Then, 2 µL of the mixture of substrate and ATP was added to the 384-well assay plate. The plate was centrifuged at 1000 rpm for 60 seconds in a microplate centrifuge, and incubated at 25 °C in a biochemical incubator for 60 minutes. 4 µL of ADP-Glo Reagent (Cat. No. V9103, manufacturer: Promega) incubated at 25 °C in a biochemical incubator was added to each well of the 384-well assay plate. The plate was centrifuged at 1000 rpm for 60 seconds in a microplate centrifuge, and incubated at 25 °C in a biochemical incubator for 40 minutes. 8 µL of Detection Reagent incubated at 25 °C in a biochemical incubator was added to each well of the 384-well assay plate. The plate was centrifuged at 1000 rpm for 60 seconds in a microplate centrifuge, and incubated at 25 °C in a biochemical incubator for 40 minutes. Finally, luminescence signals were read using a multifunctional microplate reader (model: PHERAstar FSX, manufacturer: BMG). IC50 values were calculated by nonlinear fitting of the concentration-response curves using GraphPad Prism software.
On the technique in general: In ADP-Glo the light output rises with the ADP produced.

A further assay has as its target CDK4/cyclin D1 (Homo sapiens, UniProt P11802). Briefly: Assay of kinase activity (ADP-Glo). It counts as biochemical. The settings on record: kinase inhibitory activity. As for the experimental part:
as §1

The next assay deals with CDK6/cyclin D3 (Homo sapiens, UniProt Q00534). The assay can be described thus: Assay of kinase activity (ADP-Glo). It counts as biochemical. The note with it: kinase inhibitory activity. As for the experimental part:
(§2) CDK/cyclin catalyzes the phosphorylation of a substrate, which concomitantly consumes ATP and produces ADP. The inhibition rate (%) in the presence of a small molecule inhibitor was assessed by measuring the amount of ADP generated in the reaction. The assay compounds were thoroughly mixed by vortexing and then diluted in DMSO to 100× the assay concentration. 40 nL of a compound was transferred to a 384-well assay plate using a nanoliter pipetting system (ECHO® 655 SYSTEM). A 2× kinase solution was prepared using a 1× kinase reaction buffer (50 mM Hepes, 10 mM MgCl2, 0.01% Brij35, 2 mM DTT). 2 µL of the kinase solution was transferred to the 384-well assay plate, and the plate was centrifuged at 1000 rpm for 60 seconds in a microplate centrifuge. The plate was incubated at 25 °C in a biochemical incubator for 10 minutes. A 2x mixture of substrate and ATP was prepared in the kinase reaction buffer. Then, 2 µL of the mixture of substrate and ATP was added to the 384-well assay plate. The plate was centrifuged at 1000 rpm for 60 seconds in a microplate centrifuge, and incubated at 25 °C in a biochemical incubator for 60 minutes. 4 µL of ADP-Glo Reagent (Cat. No. V9103, manufacturer: Promega) incubated at 25 °C in a biochemical incubator was added to each well of the 384-well assay plate. The plate was centrifuged at 1000 rpm for 60 seconds in a microplate centrifuge, and incubated at 25 °C in a biochemical incubator for 40 minutes. 8 µL of Detection Reagent incubated at 25 °C in a biochemical incubator was added to each well of the 384-well assay plate. The plate was centrifuged at 1000 rpm for 60 seconds in a microplate centrifuge, and incubated at 25 °C in a biochemical incubator for 40 minutes. Finally, luminescence signals were read using a multifunctional microplate reader (model: PHERAstar FSX, manufacturer: BMG). IC50 values were calculated by nonlinear fitting of the concentration-response curves using GraphPad Prism software.

Assay [1] relates to human acute myeloid leukemia MV-4-11 cells. The assay can be described thus: Assay of cell proliferation (CellTiter-Glo). It counts as cell-based. The note with it: MV4-11, 144 h, 6 days, read-out: MV-4-11 IC50 of cell proliferation inhibitory activity. As for the experimental part:
(§3) Human ovarian cancer OVCAR3 cells were inoculated at 2000 cells/well in a 96-well plate and cultured in RPMI 1640 medium containing 20% FBS at 37 °C and 5% CO2 overnight in an incubator. The next day, the compounds were subjected to a three-fold gradient dilution in DMSO from a peak concentration of 2 mM to give nine concentrations. Then, the compounds were diluted 3:200 in growth medium, and finally diluted 1:3 in the cell culture supernatant to give a culture supernatant containing 0.5% DMSO, with the compounds treatment concentrations ranging from 10 µM to 0.1 nM. The cells and the compounds were incubated at 37 °C and 5% CO2 for 6 days. Then, cell proliferation assay was performed using the CellTiter-Glo (manufacturer: Promega, Cat. No. G9242), and luminescence signals were read using a multifunctional microplate reader (model: Synergy H1, manufacturer: BiotTek). IC50 values were calculated by fitting of the concentration-response curves with a four-parameter analysis method using GraphPad Prism software.
(§4) The cell proliferation assays of human colon cancer HCT-116 cells, human breast cancer MCF-7 cells, human breast cancer HCC1806 cells, human acute myeloid leukemia MV-4-11 cells, and human gastric cancer MKN1 cells were performed according to the same method, with different inoculation densities set according to different cell growth characteristics.
For orientation: Cellular ATP, detected with luciferase, serves as a proxy for viable cell number.

Assay [2] relates to human breast cancer HCC1806 cells. The assay can be described thus: Assay of cell proliferation (CellTiter-Glo). Format: cell-based. The settings on record: 6 days, read-out: HCC1806 IC50 of cell proliferation inhibitory activity. As for the experimental part:
as §3, §4

For assay [3], the system named is human gastric cancer MKN1 cells. Briefly: Assay of cell proliferation (CellTiter-Glo). Format: cell-based. The note with it: read-out: MKN1 IC50 of cell proliferation inhibitory activity. As for the experimental part:
as §3, §4

Assay [4] relates to Human ovarian cancer OVCAR3 cells. Briefly: Assay of cell proliferation (CellTiter-Glo). Format: cell-based. The settings on record: 6 days, read-out: OVCAR3 IC50 of cell proliferation inhibitory activity. As for the experimental part:
as §3

A further assay addresses CDK9/cyclin T1 (Homo sapiens, UniProt P50750). The assay can be described thus: Assay of kinase activity (ADP-Glo). It counts as biochemical. The note with it: kinase inhibitory activity. As for the experimental part: as §2
Where [5] appears, read: Homo sapiens, MKN-1, 144 h, MNK1, 6 days.

CDK4/cyclin D1, sequence (P11802 whole entry, species assumed): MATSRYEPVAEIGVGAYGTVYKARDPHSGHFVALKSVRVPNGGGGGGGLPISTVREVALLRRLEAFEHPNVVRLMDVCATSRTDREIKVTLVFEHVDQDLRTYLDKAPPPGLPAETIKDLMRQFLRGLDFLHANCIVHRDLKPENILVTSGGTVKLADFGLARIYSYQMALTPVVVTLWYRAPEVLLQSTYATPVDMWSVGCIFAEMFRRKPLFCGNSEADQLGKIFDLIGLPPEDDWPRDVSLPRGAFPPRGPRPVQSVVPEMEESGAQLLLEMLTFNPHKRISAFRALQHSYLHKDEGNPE
CDK4/cyclin D1, sequence (P24385 whole entry partner, species assumed): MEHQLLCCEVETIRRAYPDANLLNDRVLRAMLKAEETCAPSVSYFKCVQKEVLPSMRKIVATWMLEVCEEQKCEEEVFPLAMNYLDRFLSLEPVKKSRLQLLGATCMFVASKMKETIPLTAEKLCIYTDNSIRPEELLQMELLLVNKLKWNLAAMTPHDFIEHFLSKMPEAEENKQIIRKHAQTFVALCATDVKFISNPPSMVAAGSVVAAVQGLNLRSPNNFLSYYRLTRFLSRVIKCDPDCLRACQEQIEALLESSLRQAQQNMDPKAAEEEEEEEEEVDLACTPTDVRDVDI
CDK6/cyclin D3, sequence (Q00534 whole entry, species assumed): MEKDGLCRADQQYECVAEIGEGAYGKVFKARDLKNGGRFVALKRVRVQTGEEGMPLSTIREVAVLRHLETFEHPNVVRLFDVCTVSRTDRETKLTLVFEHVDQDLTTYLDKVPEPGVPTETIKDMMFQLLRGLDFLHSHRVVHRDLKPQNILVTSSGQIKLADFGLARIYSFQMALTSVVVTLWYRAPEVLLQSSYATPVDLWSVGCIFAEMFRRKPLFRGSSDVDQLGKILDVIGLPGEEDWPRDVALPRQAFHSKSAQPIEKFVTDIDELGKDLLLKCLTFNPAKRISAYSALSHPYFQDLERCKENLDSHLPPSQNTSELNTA
CDK6/cyclin D3, sequence (P30281 whole entry partner, species assumed): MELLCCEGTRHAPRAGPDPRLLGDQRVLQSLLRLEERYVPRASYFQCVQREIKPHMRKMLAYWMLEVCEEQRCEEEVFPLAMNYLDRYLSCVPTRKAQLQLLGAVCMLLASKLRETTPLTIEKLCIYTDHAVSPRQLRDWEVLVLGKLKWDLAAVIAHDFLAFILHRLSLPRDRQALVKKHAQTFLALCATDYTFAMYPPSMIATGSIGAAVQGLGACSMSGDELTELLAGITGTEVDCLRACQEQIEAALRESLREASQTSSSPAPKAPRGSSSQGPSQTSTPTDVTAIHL
CDK9/cyclin T1, sequence (P50750 whole entry, species assumed): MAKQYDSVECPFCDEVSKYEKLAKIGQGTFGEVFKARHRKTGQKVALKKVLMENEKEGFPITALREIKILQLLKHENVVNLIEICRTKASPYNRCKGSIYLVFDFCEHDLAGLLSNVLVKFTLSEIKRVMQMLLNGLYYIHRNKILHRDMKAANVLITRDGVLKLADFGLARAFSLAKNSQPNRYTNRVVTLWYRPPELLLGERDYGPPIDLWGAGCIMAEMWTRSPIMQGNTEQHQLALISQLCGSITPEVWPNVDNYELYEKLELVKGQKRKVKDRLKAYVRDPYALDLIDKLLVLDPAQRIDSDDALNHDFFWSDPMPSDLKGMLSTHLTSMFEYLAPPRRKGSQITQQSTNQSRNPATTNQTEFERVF
CDK9/cyclin T1, sequence (O60563 whole entry partner, species assumed): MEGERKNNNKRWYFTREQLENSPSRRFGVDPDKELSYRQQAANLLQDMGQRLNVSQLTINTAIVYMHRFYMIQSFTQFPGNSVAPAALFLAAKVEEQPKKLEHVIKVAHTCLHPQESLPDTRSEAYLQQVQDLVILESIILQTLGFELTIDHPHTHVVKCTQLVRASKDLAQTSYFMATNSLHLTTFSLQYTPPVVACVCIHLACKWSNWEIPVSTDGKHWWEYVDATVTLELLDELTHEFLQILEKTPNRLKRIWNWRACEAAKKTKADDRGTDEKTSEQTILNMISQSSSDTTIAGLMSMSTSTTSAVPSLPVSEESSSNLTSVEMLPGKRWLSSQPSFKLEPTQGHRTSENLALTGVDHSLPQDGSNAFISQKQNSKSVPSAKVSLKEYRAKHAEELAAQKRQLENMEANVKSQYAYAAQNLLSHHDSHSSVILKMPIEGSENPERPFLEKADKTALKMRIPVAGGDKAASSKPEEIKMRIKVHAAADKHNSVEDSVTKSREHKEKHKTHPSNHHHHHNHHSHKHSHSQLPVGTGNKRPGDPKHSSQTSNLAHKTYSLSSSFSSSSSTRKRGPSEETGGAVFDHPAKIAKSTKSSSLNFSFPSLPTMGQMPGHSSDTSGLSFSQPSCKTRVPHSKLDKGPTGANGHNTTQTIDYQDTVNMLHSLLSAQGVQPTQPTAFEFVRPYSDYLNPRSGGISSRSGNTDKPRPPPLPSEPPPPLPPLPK

For `CC[C@H](Nc1nc(NCc2cnc(C)cc2C)c2ncn(C(C)C)c2n1)[C@@H](C)O` [CYC-065 (Fadraciclib), reference compound], the IC50 was 3 nM on CDK2/cyclin E; 228 nM against CDK4/cyclin D1; above 1000 nM against CDK6/cyclin D3; 171 nM in assay [1]; 623 nM in assay [2] (Homo sapiens, 144 h); 209 nM in assay [3] (setting [5]). Further, the IC50 in assay [4] (Homo sapiens, OVCAR-3, 144 h) amounted to 349 nM.

Take `CC(C)n1nnc2ccc3cnc(Nc4ccc(C(=O)N5CC[C@@H](C)[C@@H](N)C5)cc4)nc3c21` [Example I-12, ((3R,4R)-3-Amino-4-methylpiperidin-1-yl)(4-((1-isopropyl-1H-[1,2,3]triazolo[4,5-H]quinazolin-8-yl)amino)phenyl)metha none]: the IC50 at CDK2/cyclin E was determined as 1 nM; against CDK4/cyclin D1, 3 nM; at CDK6/cyclin D3, 18 nM; in assay [1], 6 nM; in assay [2] (Homo sapiens, 144 h), 84 nM; in assay [3] (setting [5]), 30 nM. The IC50 in assay [4] (Homo sapiens, OVCAR-3, 144 h) was 26 nM.

Take `CN(C)[C@H]1CCN(C(=O)c2ccc(Nc3ncc4ccc5nnn(C6CCCC6)c5c4n3)cc2)C1` [Example I-40, (S)-(4-((1-cyclopentyl-1H-[1,2,3]triazolo[4,5-H]quinazolin-8-yl)amino)phenyl)(3-(dimethylamino)pyrrolidin-1-yl)methanone]: the IC50 is 0.06 nM at CDK2/cyclin E; 0.7 nM at CDK4/cyclin D1; 3 nM at CDK6/cyclin D3; 2 nM at CDK9/cyclin T1; 16 nM in assay [2] (Homo sapiens, 144 h); 5 nM in assay [3] (setting [5]). The IC50 in assay [4] (Homo sapiens, OVCAR-3, 144 h) turned out to be 10 nM.

`O=C(c1ccc(Nc2ncc3ccc4nnn(C5CCCC5)c4c3n2)cc1)N1CCCNCC1` [Example I-41, (4-((1-Cyclopentyl-1H-[1,2,3]triazolo[4,5-H]quinazolin-8-yl)amino)phenyl)(1,4-diazepan-1-yl)methanone]: the IC50 at CDK2/cyclin E turned out to be 0.08 nM; at CDK4/cyclin D1 it was 1 nM; at CDK6/cyclin D3 it was 5 nM; against CDK9/cyclin T1 it was 2 nM; in assay [2] (Homo sapiens, 144 h), 15 nM; in assay [3] (setting [5]), 4 nM. In addition, in assay [4] (Homo sapiens, OVCAR-3, 144 h), the IC50 was 11 nM.

Consider `CN1CCCN(C(=O)c2ccc(Nc3ncc4ccc5nnn(C6CCCC6)c5c4n3)cc2)CC1` [Example I-42, (4-((1-Cyclopentyl-1H-[1,2,3]triazolo[4,5-H]quinazolin-8-yl)amino)phenyl)(4-methyl-1,4-diazepan-1-yl)methanone], for which the IC50 turned out to be 0.06 nM on CDK2/cyclin E; 1 nM against CDK4/cyclin D1; 4 nM on CDK6/cyclin D3; 2 nM against CDK9/cyclin T1; 7 nM in assay [2] (Homo sapiens, 144 h); 3 nM in assay [3] (setting [5]). In assay [4] (Homo sapiens, OVCAR-3, 144 h), the IC50 is 6 nM.

For `CN[C@H]1CCN(C(=O)c2ccc(Nc3ncc4cc(C(F)F)c5nnn(C(C)C)c5c4n3)cc2)C1` [Example I-44, (S)-(4-((4-(difluoromethyl)-1-isopropyl-1H-[1,2,3]triazolo[4,5-H]quinazolin-8-yl)amino)phenyl)(3-(methylamino)pyrrolidin-1-yl)methanone], the IC50 at CDK2/cyclin E was 0.7 nM; against CDK4/cyclin D1 it was 2 nM; against CDK6/cyclin D3 it was 16 nM; at CDK9/cyclin T1, 140 nM; in assay [2] (Homo sapiens, 144 h), 404 nM; in assay [3] (setting [5]), 127 nM. The IC50 in assay [4] (Homo sapiens, OVCAR-3, 144 h) turned out to be 321 nM.

Consider `CC(C)n1nnc2c(C(F)F)cc3cnc(Nc4ccc(C(=O)N5CC[C@H](N(C)C)C5)cc4)nc3c21` [Example I-45, (S)-(4-((4-(Difluoromethyl)-1-isopropyl-1H-[1,2,3]triazolo[4,5-H]quinazolin-8-yl)amino)phenyl)(3-(dimethylamino)pyrrolidin-1-yl)methanone], for which the IC50 at CDK2/cyclin E stood at 0.8 nM; against CDK4/cyclin D1, 3 nM; on CDK6/cyclin D3 it was 36 nM; against CDK9/cyclin T1, 144 nM; in assay [2] (Homo sapiens, 144 h), 476 nM; in assay [3] (setting [5]), 241 nM. In assay [4] (Homo sapiens, OVCAR-3, 144 h), the IC50 is 359 nM.

For `CC(C)n1nnc2c(C(F)F)cc3cnc(Nc4ccc(C(=O)N5CCCNCC5)cc4)nc3c21` [Example I-46], the IC50 stood at 0.7 nM at CDK2/cyclin E; 3 nM on CDK4/cyclin D1; 24 nM against CDK6/cyclin D3; 134 nM at CDK9/cyclin T1; 317 nM in assay [2] (Homo sapiens, 144 h); 170 nM in assay [3] (setting [5]). The IC50 in assay [4] (Homo sapiens, OVCAR-3, 144 h) was 275 nM.

`CC(C)n1nnc2c(C(F)F)cc3cnc(Nc4ccc(C(=O)N5CCCN(C)CC5)cc4)nc3c21` [Example I-47, (4-((4-(Difluoromethyl)-1-isopropyl-1H-[1,2,3]triazolo[4,5-H]quinazolin-8-yl)amino)phenyl)(4-methyl-1,4-diazepan-1-yl)methanone]: the IC50 at CDK2/cyclin E came out at 0.7 nM; on CDK4/cyclin D1, 2 nM; on CDK6/cyclin D3, 20 nM; against CDK9/cyclin T1, 148 nM; in assay [2] (Homo sapiens, 144 h) it was 169 nM; in assay [3] (setting [5]), 111 nM. Further, the IC50 in assay [4] (Homo sapiens, OVCAR-3, 144 h) came out at 146 nM.

As for `C[C@H](CO)n1nnc2ccc3cnc(Nc4ccc(C(=O)N5CCNCC5)cc4)nc3c21` [Example I-50, (R)-(4-((1-(1-Hydroxypropan-2-yl)-1H-[1,2,3]triazolo[4,5-H]quinazolin-8-yl)amino)phenyl)(piperazin-1-yl)methanone], the IC50 was 2 nM at CDK2/cyclin E; 4 nM on CDK4/cyclin D1; 85 nM on CDK6/cyclin D3; 100 nM against CDK9/cyclin T1; 1740 nM in assay [2] (Homo sapiens, 144 h); 548 nM in assay [3] (setting [5]). Moreover, in assay [4] (Homo sapiens, OVCAR-3, 144 h), the IC50 came out at 1310 nM.

Consider “(S)-(3-Aminopyrrolidin-1-yl)(4-(4-(difluoromethyl)-1-isopropyl-1H-[1,2,3]triazolo[4,5-H]quinazolin-8-yl)amino)phenyl)methanone [Example I-43]”, for which the IC50 on CDK2/cyclin E came out at 1 nM; on CDK4/cyclin D1, 2 nM; against CDK6/cyclin D3 it was 8 nM; against CDK9/cyclin T1, 130 nM; in assay [2] it was 631 nM; in assay [3] (column head MKN1, 6 days), 444 nM. The IC50 in assay [4] worked out at 676 nM.
